Source: patent US8138158B2, “Compositions and methods for therapy for diseases characterized by defective chloride transport” (Children's Hospital & Research Center at Oakland, priority 1997, dated 2012)
One block for each compound: values may come before it.

What was measured:
Format in all cases: cell-based, human
Calu-3 monolayers [1] = experiment: Transepithelial short-circuit current (Isc) across unstimulated Calu-3 monolayers; conditions: for transepithelial chloride currents in unstimulated tissue: compound added to mucosal (or serosal) perfusion, L-ascorbic acid 100 μM
Description: Currents were recorded with a serosal-to-mucosal chloride gradient at 0 mV and pulses were obtained at 2 mV.
Ascorbic acid (100 μM) was added as indicated. For comparison, ascorbic acid-stimulated chloride current was subsequently stimulated by the cAMP elevating agonist forskolin (20 μM, serosal). The CFTR activator genistein (20 mM) was then added to the mucosal perfusion as indicated. […] Currents were recorded with a serosal-to-mucosal chloride gradient at 0 mV and pulses were obtained at 2 mV.
100 μM ascorbic acid and forskolin (fsk, 20 μM, serosal) were added as indicated. The CFTR activator kaempferol (20 μM) was subsequently added, as indicated. […] Currents were recorded with a serosal-to-mucosal chloride gradient at 0 mV and pulses were obtained at 2 mV.
This experiment was performed using unstimulated tissue.
Kinetic analysis is depicted on the right panel and estimated half maximal stimulatory dose was 11.7 μM. […]
For comparison, ascorbic acid-stimulated chloride currents were stimulated by the cAMP elevating agonist forskolin (20 μM, serosal).
Stimulated C1 currents returned to baseline after 5-15 min.

Calu-3 monolayers [2] = experiment: Transepithelial chloride currents in forskolin-prestimulated Calu-3 monolayers; conditions: prestimulated with 10 μM forskolin
Description: FIGS. 13A-13C illustrate the effect of additional representative flavonoids and isoflavonoids on chloride current in epithelial cells. FIG. 13A is a graph showing the stimulation of transepithelial chloride currents by reservatrol (100 μM), flavanone (100 μM), flavone (200 μM), apigenin (20 μM), apigenin 7-O-neohesperidoside (30 μM), kaempferol (20 μM), fisetin (100 μM), quercetin (30 μM), rutin (30 μM), genistein (30 μM), daidzein (50 μM), biochanin A (100 μM) and prunetin (100 μM) in Calu-3 monolayers. Experiments were performed in the presence of 10 μM forskolin. Stimulated currents are plotted relative to forskolin stimulated increase (forskolin stimulated currents are 100%). FIG. 13B is a recording showing the effect of 7,4′-dihydroxyflavone on chloride current in unstimulated tissue. […] Increasing concentrations of 7,4′-dihydroxyflavone (as indicated in μM) were added to mucosal side and dose-dependently stimulated chloride currents. Currents were recorded with a serosal-to-mucosal chloride gradient at 0 mV and pulses were obtained at 2 mV. FIG. 13C is a recording illustrating the effect of trimethoxy-apigenin. […] Increasing concentrations of trimethoxy-apigenin (as indicated in μM) were added to mucosal side and dose-dependently stimulated chloride currents. Experiment was performed on unstimulated tissue. Currents were recorded with a serosal-to-mucosal chloride gradient at 0 mV and pulses were obtained at 2 mV.
Airway epithelial cells were prestimulated with 10 μM forskolin. The percent increase in chloride current was then determined following treatment with a series of polyphenolic compounds. FIG. 13A summarizes the stimulatory effect of these compounds.

[3] = test system: wildtype CFTR-corrected CF15 monolayers; experiment: Short-circuit current across wildtype CFTR-corrected CF15 monolayers; conditions: forskolin added on ascorbate-stimulated current
Description: Human airway cell culture. The human submucosal serous gland-like cell line Calu-3, the CF nasal epithelial cell line homozygous for ΔF508 CFTR (CF15) and human tracheal primary cultures (hTE) were cultured as described (Jefferson, D. M., Valentich, J. D., Marini, F. C., Grubman, S. A., Iannuzzi, M. C., Dorkin, H. L., Li, M., Klinger, K. W. & Welsh, M. J. (1990) Am. J. Physiol. 259, L496-L505. Sachs, L. A., Finkbeiner, W. E. & Widdicombe, J. H. (2003) In Vitro Cell Dev. Biol. Anim. 39, 56-62.). Wildtype CFTR-corrected CF15 cells were generated via adenovirus-mediated gene transfer. Growth media were nominally free of ascorbic acid (<10 μm, University Pathology Inc., Salt Lake City, Utah). For transepithelial measurements cells were grown on permeable filter inserts and used after 3 to 10 days.
(§1) Short-circuit current measurement. Calu-3 or CF15 cells were grown as monolayers, mounted in Ussing chambers and short-circuit current (ISC) was recorded as described (Illek, B. & Fischer, H. (1998) Am. J. Physiol. 275, L902-L910). At 20-50 second intervals, transepithelial voltage was clamped from zero to 2 mV and the transepithelial resistance (Rte) was calculated. A serosa-to-mucosa-directed Cl gradient was applied. Serosal Ussing chamber solution contained (in mM): 120 NaCl, 20 NaHCO3, 5 KHCO3, 1.2 NaH2PO4, 5.6 glucose, 2.5 CaCl2, 1.2 MgCl2. In mucosal Ussing chamber solutions, all Cl salts were exchanged for gluconate salts.
The CF15 cell line was used to determine whether ascorbate-stimulated Cl currents were solely mediated by the CFTR Cl conductance. The CF15 cell line is characterized by the absence of functional CFTR in the apical plasma membrane but the presence of other non-CFTR Cl conductances (Jefferson, D. M., Valentich, J. D., Marini, F. C., Grubman, S. A., Iannuzzi, M. C., Dorkin, H. L., Li, M., Klinger, K. W. & Welsh, M. J. (1990) Am. J. Physiol. 259, L496-L505). A concentration of L-ascorbic acid that lay within the upper plateau of the dose response curve (500 μm) was applied and ascorbate-stimulated Cl currents in CF15 vs. wildtype CFTR-corrected CF15 monolayers was compared (FIG. 23A). […] The defective response to L-ascorbic acid was reversed in wildtype CFTR-corrected CF15 epithelia such that ISC responded promptly to L-ascorbic acid (ΔISC=7.5±0.5 μA/cm^2, n=6). The ascorbate-stimulated current was further activated by the cAMP agonist forskolin and total stimulated ISC averaged 12.1±1.1 μA/cm^2 (FIG. 4B). The ascorbate-stimulated Cl current reached 60±15% of the forskolin-stimulated current in CFTR-corrected CF15 monolayers, which was close to the corresponding findings in Calu-3 monolayers (68%, see FIG. 21A). The absence of ascorbate-stimulated Cl currents in CF15 monolayers supports the notion that non-CFTR Cl conductances were not activated by L-ascorbic acid.
In this example, chloride currents stimulated by L-ascorbate or D-ascorbate were measured in CF15 versus. wildtype CFTR-corrected CF15 monolayers. A concentration of L-ascorbate (1 mM) or D-isoascorbate (300 μm) that lay within the upper plateau of the dose-response curve was applied to cells and the resulting chloride currents stimulated in CF15 versus wildtype CFTR-corrected CF15 monolayers were measured (FIG. 25 A-H). All experiments were performed in the presence of the sodium channel blocker amiloride. […]

Calu-3 airway epithelia = experiment: Short-circuit current (transepithelial Cl secretion) across Calu-3 airway epithelia, Examples 12-13
Description: as §1
Vitamin C activation of CFTR-mediated Cl secretion was studied in Calu-3 cells grown as epithelial monolayers (FIG. 21A). Exposure of the apical membrane to maximal concentrations of L-ascorbic acid stimulated transepithelial Cl currents (ISC) in a sustained fashion to 96±11 μA/cm^2 (n=22). Subsequent addition of forskolin further increased ISC to 141±33 μA/cm^2 (n=9, p=0.029). On average, Cl secretion was stimulated by ascorbate to 68% of the currents elicited by forskolin. The Cl channel blocker diphenylcarboxylate (DPC, 4 mM) was added as a measure for the transcellular Cl current decreasing ISC to 30±4 μA/cm^2. When Cl secretion was first stimulated with forskolin (to 106±23 μA/cm^2, n=4) ascorbate had no significant effect on Ise (at 100 μM: ΔICl=−1.5±3.5 μA/cm^2, n=4, not different from zero, one-sample t test). Half-maximal stimulatory constant averaged 36.5±2.9 μm as determined from transepithelial dose-response experiments.
Furthermore, the response to ascorbate in Na-containing medium was blunted in the presence of phloretin, a known inhibitor of the sodium-dependent vitamin C transporters SVCT1 and SVCT2 (Tsukaguchi, H., Tokui, T., Mackenzie, B., Berger, U. V., Chen, X. Z., Wang, Y., Brubaker, R. F. & Hediger, M. A. (1999) Nature 399, 70-75). […] Molecular expression of SVCT1 and SVCT2 transcripts in Calu-3 cells was verified using RT-PCR and DNA sequencing analysis. For comparison, human ciliated tracheal epithelial cultures (hTE) and a nasal cystic fibrosis airway cell line (CF15) were included. […] The recombinantly expressed SVCT2-EGFP fusion protein was targeted exclusively to the apical membrane pole of CF15 epithelia.

[4] = dehydroascorbic acid 10, 100 or 300 μM

Compound: O=c1cc(-c2ccc(O)cc2)oc2cc(O)ccc12 [7,4′-Dihydroxyflavone]
- transepithelial chloride currents in unstimulated tissue (Calu-3 monolayers [1]; [4]): dose-dependently stimulated transepithelial C1 currents

Compound: C[C@@H]1O[C@@H](O[C@H]2[C@H](Oc3cc(O)c4c(=O)cc(-c5ccc(O)cc5)oc4c3)O[C@H](CO)[C@@H](O)[C@@H]2O)[C@H](O)[C@H](O)[C@H]1O [apigenin 7-O-neohesperidoside]
- chloride currents further stimulated to (forskolin stimulated currents are 100%) (Calu-3 monolayers [2]; compound at 30 μM): 155%

Compound: O=c1c(-c2ccc(O)cc2)coc2cc(O)ccc12 [daidzein]
- chloride currents further stimulated to (forskolin stimulated currents are 100%) (Calu-3 monolayers [2]; compound at 50 μM): 162%

Compound: O=C1O[C@H](C(O)CO)C(=O)C1=O (stereo partly drawn) [dehydroascorbic acid, L-threo-2,3-Hexodiulosonic acid γ-lactone]
- transepithelial chloride currents in unstimulated tissue (Calu-3 monolayers [1]; [4]): effectively stimulated transepithelial chloride currents
- stimulated Cl currents returned to baseline after (Calu-3 monolayers [1]; [4]): 5 to 15 min

Compound: O=C1CC(c2ccccc2)Oc2ccccc21 (stereo not drawn) [flavanone]
- chloride currents further stimulated to (forskolin stimulated currents are 100%) (Calu-3 monolayers [2]; compound at 100 μM): 140%

Compound: O=c1cc(-c2ccccc2)oc2ccccc12 [flavone]
- chloride currents further stimulated to (forskolin stimulated currents are 100%) (Calu-3 monolayers [2]; compound at 200 μM): 128%

Compound: C=C[C@@]1(C)CC(=O)[C@]2(O)[C@@]3(C)[C@@H](O)CCC(C)(C)[C@@H]3[C@H](O)[C@H](OC(C)=O)[C@@]2(C)O1 [forskolin, reference compound]
- total stimulated ISC [3]: 12.1±1.1 μA/cm^2
- Cl secretion first stimulated with forskolin to (Calu-3 airway epithelia; forskolin first, n=4): 106±23 μA/cm^2
- ISC further increased to (Calu-3 airway epithelia; subsequent addition of forskolin after L-ascorbic acid, n=9): 141±33 μA/cm^2

Compound: O=C(CCc1ccc(O)cc1)c1c(O)cc(O)cc1O [phloretin, reference compound]
- response to ascorbate in presence of SVCT inhibitor (Calu-3 airway epithelia; Na-containing medium, pre-treatment with 200 μM phloretin): blunted

Compound: COc1cc(O)c2c(=O)c(-c3ccc(O)cc3)coc2c1 [prunetin]
- chloride currents further stimulated to (forskolin stimulated currents are 100%) (Calu-3 monolayers [2]; compound at 100 μM): 161%

Compound: Oc1ccc(/C=C/c2cc(O)cc(O)c2)cc1 [reservatrol, trans-3,5,4′-trihydroxystilbene]
- transepithelial chloride currents in unstimulated tissue (Calu-3 monolayers [1]; [4]): dose-dependently stimulated transepithelial chloride currents
- chloride currents further stimulated to (forskolin stimulated currents are 100%) (Calu-3 monolayers [2]; compound at 100 μM): 135%

Compound: C[C@@H]1O[C@@H](OC[C@H]2O[C@@H](Oc3c(-c4ccc(O)c(O)c4)oc4cc(O)cc(O)c4c3=O)[C@H](O)[C@@H](O)[C@@H]2O)[C@H](O)[C@H](O)[C@H]1O [rutin]
- chloride currents further stimulated to (forskolin stimulated currents are 100%) (Calu-3 monolayers [2]; compound at 30 μM): 149%

- EC50 (Calu-3 monolayers [1]; unstimulated tissue, mucosal addition, kinetic analysis, read-out: estimated half maximal stimulatory dose): 11.7 µM
Compound: COc1ccc(-c2cc(=O)c3c(OC)cc(OC)cc3o2)cc1 [trimethoxy-apigenin]
- transepithelial chloride currents in unstimulated tissue (Calu-3 monolayers [1]; [4]): dose-dependently stimulated transepithelial C1 currents

Compound: fisetin
- chloride currents further stimulated to (forskolin stimulated currents are 100%) (Calu-3 monolayers [2]; compound at 100 μM): 108%
